Here are results for 16 molecules from patent US8975417B2, “Pyrazolopyrrolidine derivatives and their use in the treatment of disease” (Novartis AG, priority 2013, dated 2015).

For one assay, the target named is His-Brd2(60-472) (Homo sapiens (Human), UniProt P25440). Briefly: TR-FRET in-vitro binding assay for BRD2. As to conditions: biochemical. In a few lines: (§1)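 Eight-point dilution series tested against in-house His-BRD2(60-472), BRD3(20-477) or BRD4(44-477) (45 nM in dispensed solution) binding acetyl-histone H4 (AcK5,8,12,16; 60 nM in dispensed solution). Incubation 35 min at 30 °C, pH 7.5 HEPES buffer; detection by TR-FRET using Eu-anti-His6 and streptavidin-allophycocyanin.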
His-Brd2(60-472), sequence (P25440 60-472): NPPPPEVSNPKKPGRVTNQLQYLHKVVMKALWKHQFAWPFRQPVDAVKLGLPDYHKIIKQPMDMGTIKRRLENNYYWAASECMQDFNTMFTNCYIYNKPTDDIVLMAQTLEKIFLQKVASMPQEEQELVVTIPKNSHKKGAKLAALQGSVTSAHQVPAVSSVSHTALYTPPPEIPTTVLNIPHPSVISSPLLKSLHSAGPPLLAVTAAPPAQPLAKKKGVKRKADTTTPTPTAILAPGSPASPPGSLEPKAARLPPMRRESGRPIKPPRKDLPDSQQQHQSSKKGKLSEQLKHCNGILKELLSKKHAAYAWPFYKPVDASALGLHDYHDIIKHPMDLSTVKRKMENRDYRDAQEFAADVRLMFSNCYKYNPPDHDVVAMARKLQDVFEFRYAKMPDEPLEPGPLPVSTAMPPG

Another assay has as its target His-Brd3(20-477) (Homo sapiens (Human), UniProt Q15059). Briefly: TR-FRET in-vitro binding assay for BRD3. As to conditions: biochemical. In outline: as §1
(In general: TR-FRET usually uses a lanthanide donor and a delayed reading to cut background.)

The target of assay [1] is nuclear BRD4-NUT foci in HCC2494 NUT midline carcinoma cells (Homo sapiens (Human), UniProt O60885+Q86Y26). Briefly: Nut-foci formation assay. It is filed as cell-based. As to conditions: 24 hours, read-out: HCS Brd4-NUT IC50. In outline:
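Read-out is number and intensity of nuclear NUT foci by immunofluorescence imaging, relative to 0.1% DMSO set as 100. Compounds were tested as 3-fold series starting at 10 μM on HCC2494 NUT midline carcinoma cells for 24 h. Four-parameter fitting gave IC50.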

His-Brd3(20-477), sequence (Q15059 20-477): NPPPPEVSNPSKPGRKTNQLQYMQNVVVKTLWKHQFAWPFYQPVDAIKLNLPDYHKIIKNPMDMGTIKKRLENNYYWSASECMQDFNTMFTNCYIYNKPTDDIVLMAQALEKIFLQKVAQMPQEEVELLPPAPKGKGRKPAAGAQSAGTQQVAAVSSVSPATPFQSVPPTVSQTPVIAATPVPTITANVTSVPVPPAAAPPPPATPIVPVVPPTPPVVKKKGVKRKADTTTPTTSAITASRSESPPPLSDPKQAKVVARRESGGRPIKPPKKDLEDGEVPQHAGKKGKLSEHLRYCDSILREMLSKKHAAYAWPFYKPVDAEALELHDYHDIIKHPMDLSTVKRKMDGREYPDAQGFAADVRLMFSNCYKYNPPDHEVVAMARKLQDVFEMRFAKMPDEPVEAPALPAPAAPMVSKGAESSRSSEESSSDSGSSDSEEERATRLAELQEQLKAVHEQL

For the molecule `Cc1ncccc1-n1nc(C)c2c1C(=O)N(c1cc(C)c(=O)n(C)c1)C2c1ccc(Cl)cc1` (stereo not drawn) [Example 82, 4-(4-chlorophenyl)-5-(1,5-dimethyl-6-oxo-1,6-dihydropyridin-3-yl)-3-methyl-1-(2-methylpyridin-3-yl)-4,5-dihydropyrrolo[3,4-c]pyrazol-6(1H)-one], the IC50 – broadly, the concentration that gives 50% inhibition – on His-Brd2(60-472) came out at 97 nM; on His-Brd3(20-477) it was 96 nM; in assay [1] it was 29.4 nM.
The matching figures for `Cc1nn(-c2cncn2C)c2c1C(c1ccc(Cl)cc1)N(c1cc(C)c(=O)n(C)c1)C2=O` (stereo not drawn) [Example 83, 4-(4-chlorophenyl)-5-(1,5-dimethyl-6-oxo-1,6-dihydropyridin-3-yl)-3-methyl-1-(1-methyl-1H-imidazol-5-yl)-4,5-dihydropyrrolo[3,4-c]pyrazol-6(1H)-one]: 120 nM, 97 nM and 96.8 nM.
Turning to `CCc1nn(C2CC2)c2c1C(c1ccc(Cl)cc1)N(c1cc(OC)c3nnc(C)n3c1)C2=O` (stereo not drawn) [Example 84, 4-(4-chlorophenyl)-1-cyclopropyl-3-ethyl-5-(8-methoxy-3-methyl-[1,2,4]triazolo[4,3-a]pyridin-6-yl)-4,5-dihydropyrrolo[3,4-c]pyrazol-6(1H)-one], the IC50 at His-Brd2(60-472) was found to be 37 nM; at His-Brd3(20-477), 61.5 nM; in assay [1] it was 92 nM.
`CCc1nn(CCOC)c2c1C(c1ccc(Cl)cc1)N(c1cc(C)c3nnc(C)n3c1)C2=O` (stereo not drawn) [Example 87, 4-(4-chlorophenyl)-5-(3,8-dimethyl-[1,2,4]triazolo[4,3-a]pyridin-6-yl)-3-ethyl-1-(2-methoxyethyl)-4,5-dihydropyrrolo[3,4-c]pyrazol-6(1H)-one]: the values for the IC50 (at His-Brd2(60-472); on His-Brd3(20-477); in assay [1]) were 72 nM, 59 nM and 17.3 nM, respectively.
In the case of `CCc1nn(-c2ccnn2C)c2c1C(c1ccc(Cl)cc1)N(c1cc(C)c(=O)n(C)c1)C2=O` (stereo not drawn) [Example 89, 4-(4-chlorophenyl)-5-(1,5-dimethyl-6-oxo-1,6-dihydropyridin-3-yl)-3-ethyl-1-(1-methyl-1H-pyrazol-5-yl)-4,5-dihydropyrrolo[3,4-c]pyrazol-6(1H)-one], the figures for the IC50 (at His-Brd2(60-472); at His-Brd3(20-477); in assay [1]) were 60 nM, 57 nM and 44.3 nM, respectively.
The corresponding values for `Cc1nn(-c2ccnn2C)c2c1C(c1ccc(Cl)cc1)N(c1cc(C)c3nnc(C)n3c1)C2=O` (stereo not drawn) [Example 90, 4-(4-chlorophenyl)-5-(3,8-dimethyl-[1,2,4]triazolo[4,3-a]pyridin-6-yl)-3-methyl-1-(1-methyl-1H-pyrazol-5-yl)-4,5-dihydropyrrolo[3,4-c]pyrazol-6(1H)-one] are 28 nM, 28 nM and 45 nM.
Regarding `Cc1cc(N2C(=O)c3nn(C4CC4)c(C)c3C2c2ccc(Cl)cc2)cn2c(C)nnc12` (stereo not drawn) [Example 93, 4-(4-chlorophenyl)-2-cyclopropyl-5-(3,8-dimethyl-[1,2,4]triazolo[4,3-a]pyridin-6-yl)-3-methyl-4,5-dihydropyrrolo[3,4-c]pyrazol-6(2H)-one], the IC50 amounted to 45 nM on His-Brd2(60-472), 31 nM on His-Brd3(20-477) and 17.9 nM in assay [1].
As for `Cc1nn(C2CCC2)c2c1C(c1ccc(Cl)cc1)N(c1cc(C)c(=O)n(C)c1)C2=O` (stereo not drawn) [Example 94, 4-(4-chlorophenyl)-1-cyclobutyl-5-(1,5-dimethyl-6-oxo-1,6-dihydropyridin-3-yl)-3-methyl-4,5-dihydropyrrolo[3,4-c]pyrazol-6(1H)-one], the figures for the IC50 (at His-Brd2(60-472); at His-Brd3(20-477); in assay [1]) were 25 nM, 28 nM and 21.9 nM, respectively.
Take `Cc1nn(C2CC2)c2c1C(c1ccc(OC(F)(F)F)cc1)N(c1cc(C)c(=O)n(C)c1)C2=O` (stereo not drawn) [Example 95, 1-cyclopropyl-5-(1,5-dimethyl-6-oxo-1,6-dihydropyridin-3-yl)-3-methyl-4-(4-(trifluoromethoxy)phenyl)-4,5-dihydropyrrolo[3,4-c]pyrazol-6(1H)-one]: the IC50 at His-Brd2(60-472) was 63 nM; at His-Brd3(20-477) it was 73 nM; in assay [1], 191 nM.
With `Cc1nn(C2CC2)c2c1C(c1cccc(C(F)(F)F)c1)N(c1cc(C)c(=O)n(C)c1)C2=O` (stereo not drawn) [Example 96, 1-cyclopropyl-5-(1,5-dimethyl-6-oxo-1,6-dihydropyridin-3-yl)-3-methyl-4-(3-(trifluoromethyl)phenyl)-4,5-dihydropyrrolo[3,4-c]pyrazol-6(1H)-one], the half-maximal inhibitory concentration (IC50) amounted to 660 nM at His-Brd2(60-472), 800 nM on His-Brd3(20-477) and 2010 nM in assay [1].
In the case of `Cc1nn(C2CC2)c2c1C(c1ccc(C(F)(F)F)cc1)N(c1cc(C)c(=O)n(C)c1)C2=O` (stereo not drawn) [Example 97, 1-cyclopropyl-5-(1,5-dimethyl-6-oxo-1,6-dihydropyridin-3-yl)-3-methyl-4-(4-(trifluoromethyl)phenyl)-4,5-dihydropyrrolo[3,4-c]pyrazol-6(1H)-one], the IC50 on His-Brd2(60-472) amounted to 88 nM; at His-Brd3(20-477), 120 nM; in assay [1] it was 145 nM.
Regarding `COc1ncc(-n2nc(C)c3c2C(=O)N(c2cc(C)c(=O)n(C)c2)[C@H]3c2ccc(Cl)cc2)c(OC)n1` [Example 99, (S)-4-(4-chlorophenyl)-1-(2,4-dimethoxypyrimidin-5-yl)-5-(1,5-dimethyl-6-oxo-1,6-dihydropyridin-3-yl)-3-methyl-4,5-dihydropyrrolo[3,4-c]pyrazol-6(1H)-one], the IC50 at His-Brd2(60-472) was 6000 nM; at His-Brd3(20-477), 7600 nM; in assay [1], 8860 nM.
Consider `COc1ncc(-n2nc(C)c3c2C(=O)N(c2cc(C)c(=O)n(C)c2)[C@@H]3c2ccc(Cl)cc2)c(OC)n1` [Example 100, (R)-4-(4-chlorophenyl)-1-(2,4-dimethoxypyrimidin-5-yl)-5-(1,5-dimethyl-6-oxo-1,6-dihydropyridin-3-yl)-3-methyl-4,5-dihydropyrrolo[3,4-c]pyrazol-6(1H)-one], for which the figures for the IC50 (at His-Brd2(60-472); at His-Brd3(20-477); in assay [1]) were 28 nM, 27 nM and 42.1 nM, respectively.
`COc1ncccc1-n1nc(C)c2c1C(=O)N(c1cc(C)c3nnc(C)n3c1)C2c1ccc(Cl)cc1` (stereo not drawn) [Example 101, 4-(4-chlorophenyl)-5-(3,8-dimethyl-[1,2,4]triazolo[4,3-a]pyridin-6-yl)-1-(2-methoxypyridin-3-yl)-3-methyl-4,5-dihydropyrrolo[3,4-c]pyrazol-6(1H)-one]: the IC50 was 43 nM on His-Brd2(60-472), 36 nM on His-Brd3(20-477) and 66.1 nM in assay [1].
Consider `Cc1nn(C2CC2)c2c1C(c1ccc(Cl)cc1)N(c1ccc3nnn(C)c3n1)C2=O` (stereo not drawn) [Example 102, 4-(4-chlorophenyl)-1-cyclopropyl-3-methyl-5-(3-methyl-3H-[1,2,3]triazolo[4,5-b]-pyridin-5-yl)-4,5-dihydropyrrolo[3,4-c]pyrazol-6(1H)-one], for which the IC50 on His-Brd2(60-472) is 72 nM; at His-Brd3(20-477) it was 55 nM; in assay [1], 230 nM.
As for `Cc1nn(C(C)C)c2c1[C@H](c1ccc(Cl)cc1)N(c1cc(C)c(=O)n(C)c1)C2=O` [Example 103, (S)-4-(4-chlorophenyl)-5-(1,5-dimethyl-6-oxo-1,6-dihydropyridin-3-yl)-1-isopropyl-3-methyl-4,5-dihydropyrrolo[3,4-c]pyrazol-6(1H)-one], the values for the IC50 (at His-Brd2(60-472); at His-Brd3(20-477); in assay [1]) were 5300 nM, 6100 nM and above 10000 nM, respectively.
